Patent publication US4172894A, “3-Thienyl-3-methyl-4-pentyl-2-pyridyl-ketone” (Laboratories Made, S.A., priority 1977, dated 1979)

Assays:
[1] = Acute toxicity in mice, intraperitoneal, deaths counted 48 hours after treatment (Litchfield-Wilcoxon); set-up: species or system Swiss I.C.R. albino mice; conditions: mouse, in vivo, ip, deaths at 48 hours, Litchfield-Wilcoxon test
Procedure: Acute toxicity study was made in Swiss I.C.R. albino mice of both sexes of 30±2 g of weight, kept without food for 24 hours prior to the experiment. Ambient temperature and relative humidity were kept constant. The products were administered intraperitoneally, and 48 hours after treatment the number of deaths was counted. Calculation of the lethal dose (LD50) was made by the Litchfield-Wilcoxon test.

Swiss I.C.R. albino mice [2] = assay: Thermal analgesia, 55° C. "hot plate" technique in mice; assay type: in vivo; conditions: 30 mg/kg, intraperitoneal, 30 minutes before 55° C. hot plate; control 38 ± 4.253
Procedure: The thermal analgesic effect was studied in Swiss I.C.R. albino mice. The 55° C. "hot plate" technique was used. Batches of 10 mice were made.
The products in study were administered intraperitoneally and after 30 minutes the mice were placed on the "hot plate", note having been made, in seconds, of the time it took them to jump. Batches of control animals were injected with only distilled water.

Swiss I.C.R. albino mice [3] = assay: Chemical analgesia, acetic acid writhing technique in mice; assay type: in vivo; conditions: 25 mg/kg, intraperitoneal, 30 minutes before 0.25 ml of 1% acetic acid; counted 20 minutes later; control 121.5 ± 7.184
Procedure: The analgesic effect was studied in Swiss I.C.R. albino mice with the acetic acid writhing technique. Batches of 10 mice were made.
The products in study were administered intraperitoneally, and 30 minutes later 0.25 ml of 1% acetic acid were injected intraperitoneally. A batch of control animals received only the acetic acid. Twenty minutes following administration of the acetic acid, the number of writhes in each mouse is counted.

Compound	LD50 at 48 h [1] [mg/kg]	Jumping time (mean ± S.E.M.) (Swiss I.C.R. albino mice [2]) [see.]	No. of writhes (mean ± S.E.M.) (Swiss I.C.R. albino mice [3])
CCC(=O)O[C@](Cc1ccccc1)(c1ccccc1)[C@H](C)CN(C)C [Dextropropoxyphene, dextropropoxyphene]	140	83.7	62.8
CCCCCc1ccnc(C(=O)c2ccsc2)c1C [Product I, 3-thienyl-3-methyl-4-pentyl-2-pyridyl-ketone]	718	96.7	35.75
